This experiment in a line: Nitric oxide-releasing ability (Griess reagent, with L-cysteine in phosphate buffer). The conditions noted are these: for Nitric oxide-releasing rate: 0.1 mM furoxan compound, 5 mM L-cysteine, 50 mM phosphate buffer pH 7.4, 37° C., 1 hour, one molecule of furoxan taken to release one molecule of nitric oxide; for nitric oxide-releasing ability (in words): conclusion from Table 1; for 3 - X/4 - X (NO-releasing rate of 3-halofuroxan/NO-releasing rate of 4-halofuroxan): ratio of the rates of the 3-halo and 4-halo isomers, same conditions as the releasing rate. The protocol:
The ability to release nitric oxide on each of (4-fluoro-3-(4-methylphenyl)furoxan, 3-fluoro-4-(4-methylphenyl)furoxan, 4-chloro-3-(4-methylphenyl)furoxan, and 3-chloro-4-(4-methylphenyl)furoxan was evaluated by the following method.
Each furoxan compound and L-cysteine were dissolved in 50 mM phosphate buffer (pH 7.4) to have a concentration of 0.1 mM and 5 mM, respectively, thereby to prepare a solution with a total volume of 6 mL. After stirring the solution at 37° C. for 1 hour, 3 mL of the solution was added to a light absorption cell and 250 μL of Griess reagent was added. After being left to stand at room temperature for 10 minutes, the absorbance was measured. The nitric oxide-releasing rate was obtained from a calibration curve prepared in advance using a sodium nitrite solution.
Background: Griess reagent forms a coloured azo dye with nitrite.

This is an account of results in patent US10053435B2, “Furoxan compound, and manufacturing method for same” (NATIONAL UNIVERSITY CORPORATION KOBE UNIVERSITY, priority 2015, dated 2018).

Structures are written as SMILES.

For the molecule `Cc1ccc(-c2no[n+]([O-])c2Cl)cc1` [3-Chloro compound, 3-chloro-4-(4-methylphenyl)furoxan, reference compound], the Nitric oxide-releasing rate came to 16.7%.
In the case of `Cc1ccc(-c2no[n+]([O-])c2F)cc1` [3-Fluoro compound, 3-fluoro-4-(4-methylphenyl)furoxan], the Nitric oxide-releasing rate turned out to be 36.8% and the “nitric oxide-releasing ability (in words)” value was “extremely high nitric oxide-releasing ability”. Further, where the note is “3-fluoro versus 3-chloro compound, same conditions”, the “nitric oxide-releasing rate compared to that of the 3-chlorofuroxan compound” value is given as “twice or more”.
Consider `Cc1ccc(-c2c(Cl)no[n+]2[O-])cc1` [4-Chloro compound, 4-chloro-3-(4-methylphenyl)furoxan, reference compound], for which the Nitric oxide-releasing rate worked out at 4.2% and the “3 - X/4 - X (NO-releasing rate of 3-halofuroxan/NO-releasing rate of 4-halofuroxan)” value is 4.0 times.
For the molecule `Cc1ccc(-c2c(F)no[n+]2[O-])cc1` [4-Fluoro compound, 4-fluoro-3-(4-methylphenyl)furoxan], the Nitric oxide-releasing rate was 2.5%, the “nitric oxide-releasing ability (in words)” value was “almost no nitric oxide-releasing ability” and the “3 - X/4 - X (NO-releasing rate of 3-halofuroxan/NO-releasing rate of 4-halofuroxan)” value is 14.7 times.
